Holding throughout (assay): NCI tumour cell line growth inhibition, 48 h
The subject of assay [1] is CAKI-1 renal.
Assay [2] concerns CCRF-CEM leukemia.
Assay [3] deals with DU-145 prostate.
The subject of assay [4] is HCT-116 colon.
For assay [5], the system named is NCI/ADR-RES ovarian.
Assay [6] has as its system OVCAR-5 ovarian.
The subject of assay [7] is RXF 393 renal.
For assay [8], the system named is SK-MEL-2 melanoma.
The test system of assay [9] is SK-MEL-28 melanoma.
Assay [10] relates to UO-31 renal.

Structures are written as SMILES.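 96-well plates; 48 h exposure; 5 concentrations. Endpoints by linear interpolation between flanking doses. Not reached: highest tested concentration assigned. TGI is the concentration that stops growth completely.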 Bounds are passed on as bounds.

Take `COP(=O)(OC)c1ccc(NCc2cc(O)ccc2O)cc1`: the TGI is 34.6 µM in assay [1]; greater than 95.3 µM in [2]; greater than 90.5 µM in assay [3]; greater than 59.7 µM in [4]; greater than 84.5 µM in assay [5]; greater than 60.1 µM in [6]. The TGI in assay [7] was 74.9 µM; in assay [8], greater than 87.8 µM; in [9] it was greater than 70.2 µM; in assay [10] it was 29.3 µM.
Take `CSC1(SC)N2Cc3ccccc3N=C2C1(c1ccccc1)c1ccccc1`: the TGI was greater than 100 µM in assay [1]; greater than 65 µM in [2]; greater than 100 µM in assay [3]; greater than 100 µM in assay [4]; greater than 67 µM in [5]; greater than 77.9 µM in assay [6]. The TGI is greater than 48.6 µM in assay [7], greater than 58.1 µM in [8], greater than 59.5 µM in assay [9] and greater than 100 µM in assay [10].
In the case of `COC(=O)c1c(O)ccc2c1c1c(n2Cc2ccccn2)C(=O)c2ccccc2C1=O`, the TGI in [1], in [2], in assay [3], in assay [4], in assay [5] and in [6] was greater than 100 µM in each case. In addition, the TGI in assay [7] is greater than 100 µM; in assay [8], greater than 100 µM; in [9] it was 99.2 µM; in [10], greater than 100 µM.
In the case of `CCCCC1(N=[N+]=[N-])C(=O)C2C=CC=C3c4ccccc4N(C1=O)C32` (stereo not given), the TGI is greater than 31.6 µM in assay [1]; greater than 31.6 µM in assay [2]; greater than 100 µM in assay [3]; greater than 31.6 µM in assay [4]; greater than 31.6 µM in [5]; greater than 31.6 µM in assay [6]. Further, the TGI is 23.7 µM in assay [7], 21.5 µM in assay [8], greater than 100 µM in [9] and greater than 31.6 µM in assay [10].
`CNC(=O)c1ccccc1[S+]1c2cccc3cccc(c23)C(=O)N1C` (stereo not given): the TGI in [1], in assay [2], in [3], in assay [4], in assay [5] and in [6] was greater than 100 µM throughout. For the same molecule, the TGI in assay [7], in [8], in assay [9] and in assay [10] was greater than 100 µM in each case.
Turning to `NC(=O)c1ncn2c(=O)n(CCl)nnc12`, the TGI in assay [1], in assay [2], in assay [3], in [4], in [5] and in assay [6] was greater than 100 µM throughout. Moreover, the TGI in assay [7], in assay [8], in assay [9] and in assay [10] was greater than 100 µM in each case.
As to `Cc1[nH]c(=O)nc2nc3ccc(Cl)cc3c(NC(C)(CO)CO)c12`, the TGI in assay [1], in [2], in [3], in assay [4], in assay [5] and in assay [6] was greater than 100 µM throughout. In addition, the TGI is 88.8 µM in [7], greater than 100 µM in assay [8], greater than 100 µM in [9] and 10.4 µM in [10].
Regarding `COc1cc(/C=c2/c3ccccc3n3c2cc(-c2ccccc2)[n+]3C)cc(OC)c1OC`, the TGI in assay [1] was 11.8 µM; in [2], greater than 28.9 µM; in assay [3], 18.4 µM; in assay [4], 6.96 µM; in assay [5], greater than 100 µM; in [6] it was 21.4 µM. Further, the TGI is 6.18 µM in assay [7], 8.06 µM in assay [8], 19.1 µM in [9] and greater than 35.9 µM in assay [10].
Consider `Cc1nc2c(Cl)cc(Cl)cc2c(Cl)c1CCCl`, for which the TGI in assay [1], in [2], in assay [3], in [4], in assay [5] and in [6] was greater than 100 µM throughout. Besides, the TGI was 79.3 µM in [7], greater than 100 µM in [8], greater than 100 µM in [9] and greater than 100 µM in assay [10].
On to `NNC(=O)CCC(NS(=O)(=O)c1ccc(Cl)cc1)C(=O)NN` (stereo not given), for which the TGI in [1], in [2], in assay [3], in [4], in assay [5] and in [6] was greater than 100 µM throughout. The TGI in [7], in [8], in assay [9] and in assay [10] was greater than 100 µM in each case.
`S=c1nc2sc3c(c2c(Nc2ccc(Br)cc2)[nH]1)CCN(N1CCc2c(sc4nc(=S)[nH]c(Nc5ccc(Br)cc5)c24)C1)C3`: the TGI in assay [1], in assay [2], in assay [3], in assay [4], in [5] and in assay [6] was greater than 50 µM in each case. The TGI is 42.5 µM in assay [7], greater than 50 µM in assay [8], 31 µM in assay [9] and greater than 50 µM in [10].
With `CCOC(=O)C1C[C@H]2CO[C@H](c3ccccc3)N2C1=O` (stereo not given in full), the TGI in assay [1], in [2], in [3], in [4], in [5] and in assay [6] was greater than 100 µM throughout. The TGI in assay [7], in assay [8], in assay [9] and in assay [10] was greater than 100 µM throughout.
For `CC1CC(=O)Nc2ccc(N=NN(C)C)cc2N1C=O` (stereo not given), the TGI in assay [1], in assay [2], in assay [3], in [4], in assay [5] and in assay [6] was greater than 100 µM in each case. Also, the TGI in assay [7], in [8], in assay [9] and in [10] was greater than 100 µM throughout.

Values taken from PubChem BioAssay (NCI).
